Values of other authors as cited in patent US12213962B2, “Drug resistant immunotherapy for treatment of a cancer” (Emory University, priority 2009, dated 2025).

Tested on: AG104 sarcoma cells
Conditions: mice transplanted with non-modified, TMTX-sensitive cells

COc1cc(NCc2ccc3nc(N)nc(N)c3c2C)cc(OC)c1OC [TMTX, trimetrexate]
effect on efficacy of anti-CD137 antibody: reduced the efficacy
